# According to US20260125356A1, “TREATMENT OF LEISHMANIASIS” (THE UNIVERSITY OF DURHAM, priority 2022, published 2026):
# Like-named read-outs stand apart in the source and are kept apart here.
# Legend:
# [1] = design: species or system swiss albino mice; settings: mouse, in vivo
# Method: DMPK studies were performed by GVK BIO Sciences Pvt Ltd Hyderabad, India, in collaboration with LifeArc. Three swiss albino mice per experiment were inoculated (IP or oral) with compound at 10 mg kg^−1 in 10% DMSO (2 mg mL^−1) on day 1. A small blood sample (50 μL) was taken after 15 minutes, 30 minutes, 1 hr, 2 hr, 4 hr, 6 hr, 8 hr and 24 hr. Proteins were precipitated in acetonitrile and the supernatant was diluted in 1:1 methanol:water and subject to LCMS analysis. The concentration of compound in the blood was determined by comparing the peak area to a calibration curve.
# [2] = system: L. amazonensis promastigotes; experiment: L. amazonensis promastigote dose response assay (alamarBlue/resazurin); assay type: cell-based; settings: 44 hrs + 4 hrs alamarBlue/resazurin, 26° C., read-out: EC50 (L. amaz)/μM
# L. major promastigotes = experiment: L. major promastigote dose response assay (alamarBlue/resazurin); assay type: cell-based; settings: 44 hrs + 4 hrs alamarBlue/resazurin, 26° C.
# Method: (§1) Using a standard alamarBlue™ assay, activity and selectivity were assessed using L. major promastigotes and HepG2 cells, respectively.
# All parasite and human cell cultures were grown and manipulated following biosafety level 2 instructions under sterile conditions. L. major FV1, L. amazonensis (MHOM/Br/75/JOSEFA), L. donovani BOB (derived from MHOM/SD/62/1S-CL2D), T. brucei (90-13, 427 strain) and T. cruzi (Dm28c) were used throughout.
# All steps were carried out under sterile conditions. Frozen stocks of the relevant Leishmania promastigote species were thawed rapidly and added to Schneider's media. Promastigotes were grown at 26° C. in Nunc EasYFlask 25 cm^2 Nunclon Delta Surface (ThermoScientific) and frozen stocks were prepared on low passage cultures (p2-4) by pelleting the cells by centrifugation and resuspending in Schneider's media with 10% DMSO. The cultures were aliquoted into cryovials (Starlab) and cooled slowly to −150° C. for long term storage.
# All steps were carried out under sterile conditions. […] Cycloheximide or amphotericin B were used as positive controls and 2% DMSO was used as a negative control. alamarBlue® (ThermoFisher scientific) or resazurin solution was added to each well and incubated for a further 4 hrs at 26° C. Cell-viability was determined using a BioTek™ FLx800 microplate reader with Gen5® 1.08 data analysis software (BioTek) by monitoring fluorescence emission (λex 560/λem 590 nm). Dose response curves were fitted using sigmoidal regression analysis (GraphPad Prism 8 software) and used to calculate EC50 values.
# Kinetic solubility = settings: for solubility at 2 h: kinetic from dmso stock
# Description: All chemicals and solvents were sourced from commercial suppliers. Buffers were made up using purified water from a MilliQ® water purification system. Biorelevant buffers (FESSIF, FASSIF and FASSGF) were purchased from Biorelevant and made up according to manufacturer's instructions. 15% FBS (heat inactivated, South American origin, ThermoFisher scientific) in PBS (Fisher Scientific) was filter sterilised (0.22 μm Fisherbrand™ Sterile PES Syringe Filter, Fisher Scientific) before use. Sodium taurocholate was purchased from Merck.
# λmax was determined for each compound from the UV-Vis absorption spectrum of a 200 LIM compound solution in buffer of interest using a Varian Cary® 100 UV-Vis Spectrophotometer. A calibration curve of λmax VS concentration was obtained by serial dilution of compound from 200 μM in the buffer of interest, correcting for background buffer absorption. For each sample, a DMSO solution of compound was incubated in buffer of interest (<5% DMSO) for 2 hrs at RT. The solution was filtered (0.22 μm Fisherbrand™ Sterile PES Syringe Filter, Fisher Scientific) or centrifuged (14,500 rpm, 10 min) to remove undissolved debris and the supernatant was removed and diluted as required. The corrected UV absorption of the supernatant at Amax Was measured using a Varian Cary® 100 UV-Vis Spectrophotometer and compared to the calibration curve to determine compound solubility.
# HepG2 cells = experiment: HepG2 cytotoxicity dose response assay; settings: read-out: CC50 (HepG2)/μM, 44 hrs + 4 hrs alamarBlue/resazurin
# Method: as §1
# All steps were carried out under sterile conditions. HepG2 cells were thawed rapidly into DMEM. Cells were grown at 37° C., 5% CO2 for >5 days in T-75 CytoOne® Flask, TC-Treated, Vented flasks (Starlab) in a Sanyo MCO-18M incubator. […] The trypsin was deactivated by addition of DMEM. The cells were homogenised and 5 mL of cell culture was added to 20 mL fresh DMEM. Cells were split 1:4 every 3 days. Frozen stocks were prepared in the same way as the passage, but resuspended into DMEM with 10% DMSO, aliquoted into cryovials (Starlab) and cooled slowly to −150° C. for long term storage.
# All steps were carried out under sterile conditions. 80-100% confluent HepG2 were plated into Corning™ Costar™ 96-Well Flat-Bottom Microplates (Fisher Scientific) by adding 200 μL of a homogenous dispersion of cells at a concentration of 0.6×10^5 cells mL^−1 before incubation at 37° C., 5% CO2 overnight. […] The plates were incubated at 37° C., 5% CO2 for 44 hrs in a Sanyo MCO-18M incubator. alamarBlue® (ThermoFisher scientific) or resazurin solution (10 μL) was added to each well and incubated for a further 4 hrs at 37° C., 5% CO2. Cell-viability was determined using a BioTek™ FLx800 microplate reader with Gen5® 1.08 data analysis software (BioTek) by monitoring fluorescence emission (Nex 560/hem 590 nm). Dose response curves were fitted using sigmoidal regression analysis (GraphPad Prism 8 software) and used to calculate EC50 values.
# [3] = system: L. donovani promastigotes; experiment: L. donovani promastigote dose response assay (resazurin); assay type: cell-based; settings: promastigotes, 72 hrs at 26° C., resazurin, read-out: EC50 (L. don)/μM
# S. aureus (FDA209P) = experiment: Antibacterial MIC/growth assay, S. aureus; assay type: cell-based; settings: 16 hours at 37° C., absorbance 600 nm
# Method: DMSO was used as a solvent control at a maximum final concentration of 10% (a greater percentage than would be achieved using the compounds at the concentrations in question). Plates were incubated at 37° C. with shaking for 16 hours before measuring absorbance at 600 nm. These values were then used to calculate percentage growth at each dilution of compound in comparison to growth in the absence of compound. The following day, the contents of each well were resuspended using a multichannel pipette, and 5 μl from each well was then applied to LB agar plates. These were incubated at 30° C. in a stationary incubator for 16 hours before imaging.
# [4] = kinetic solubility in FESSIF, 2 hrs at RT
# [5] = kinetic solubility in PBS, 2 hrs at RT
Compound,EC50 [2] [µM],EC50 (L. major promastigotes) [µM],Solubility (PBS)/μM (Kinetic solubility; [5]) [µM],EC50 [3] [µM],further results
Ethyl 2-(5′-nitrothiophene-2′-amido)thiophene-3-carboxylate [Compound 4],1.85,0.93,,,pharmacokinetic profile [1]: poor pharmacokinetic profiles
"CNC(=O)c1ccc(C(F)(F)F)cc1NC(=O)c1ccc([N+](=O)[O-])s1 [Compound 45, N-[2-(methylcarbamoyl)-5-(trifluoromethyl)phenyl]-5′-nitrothiophene-2′-carboxamide]",0.24,1.84,6.5,,Solubility (FESSIF)/μM (Kinetic solubility; [4]): 250 µM; CC50 (HepG2 cells): 13 µM
"CNC(=O)C1CCCC1NC(=O)c1ccc([N+](=O)[O-])s1 (racemic) [Compound 25, N—[±2′-(methylcarbamoyl)cyclopentyl]-5′-nitrothiophene-2-carboxamide]",8,20,,3.4,
"CNC(=O)c1ccc(OC)cc1NC(=O)c1ccc([N+](=O)[O-])s1 [Compound 43, N-[5-methoxy-2-(methylcarbamoyl)phenyl]-5′-nitrothiophene-2′-carboxamide]",0.021,0.33,<7.4,0.006,Solubility (FESSIF)/μM (Kinetic solubility; [4]): 38 µM; CC50 (HepG2 cells): > 100 µM
Methyl 2-(5′-nitrothiophene-2′-amido)thiophene-3-carboxylate [Compound 3],0.91,0.59,,0.3,pharmacokinetic profile [1]: poor pharmacokinetic profiles
"CNC(=O)c1ccc(C)cc1NC(=O)c1ccc([N+](=O)[O-])s1 [Compound 44, N-[5-methyl-2-(methylcarbamoyl)phenyl]-5′-nitrothiophene-2′-carboxamide]",0.027,0.34,<7.4,0.005,Solubility (FESSIF)/μM (Kinetic solubility; [4]): 65 µM; CC50 (HepG2 cells): 31 µM
"CNC(=O)c1ccccc1NC(=O)c1ccc([N+](=O)[O-])s1 [Compound 28, N-[2-(methylcarbamoyl)phenyl]-5′-nitrothiophene-2′-carboxamide]",0.052,0.65,8.5,0.012,Solubility (FESSIF)/μM (Kinetic solubility; [4]): 143 µM; CC50 (HepG2 cells): 5 µM
N-methyl-2-(5′-nitrothiophene-2′-amido)thiophene-3-carboxamide [Compound 2],0.29,0.99,,0.033,pharmacokinetic profile [1]: poor pharmacokinetic profiles
"NC(=O)c1ccccc1NC(=O)c1ccc([N+](=O)[O-])s1 [Compound 27, N-(2-carbamoylphenyl)-5′-nitrothiophene-2′-carboxamide]",0.079,0.47,,,Solubility (FESSIF)/μM (Kinetic solubility): 90 µM; Solubility (PBS)/μM (Kinetic solubility): <2.5 µM
"O=C(c1ccc([N+](=O)[O-])s1)N1CCCc2ccccc21 [Compound 49, 1-(5′-nitrothiophene-2′-carbonyl)-1,2,3,4-tetrahydroquinoline]",,,,,"solubility at 2 h (Kinetic solubility; PBS, aqueous buffer): 151 ± 3 µM; EC50 (L. major promastigotes; Leishmania major, 48 h): 11.1 ± 0.3 µM"
"CNC(=O)c1ccc(OCCOCCOC)cc1NC(=O)c1ccc([N+](=O)[O-])s1 [Compound 51, N-{5-[2″-(2″-methoxyethoxy)ethoxy]-2-(methylcarbamoyl)phenyl}-5′-nitrothiophene-2′-carboxamide]",,,,,"solubility at 2 h (Kinetic solubility; FASSGF, fassgf or other biorelevant): 11 µM; solubility at 2 h (Kinetic solubility; FASSIF): < 7.4 µM; solubility at 2 h (Kinetic solubility; FESSIF): 7.26 µM; solubility at 2 h (Kinetic solubility; PBS, aqueous buffer): 2.27 µM; EC50 ([2]; Leishmania amazonensis, 48 h): 0.22 µM; EC50 ([3]; Leishmania donovani): 0.19 µM; EC50 (L. major promastigotes; Leishmania major, 48 h): 0.32 µM"
"CNC(=O)c1ccsc1NC(=O)c1ccc([N+](=O)[O-])o1 [Compound 17, N-[3-(methylcarbamoyl)thiophen-2-yl]-5′-nitrofuran-2′-carboxamide]",,,,,"EC50 ([2]; Leishmania amazonensis, 48 h): 0.33 µM; EC50 ([3]; Leishmania donovani): 0.2 µM; EC50 (L. major promastigotes; Leishmania major, 48 h): 0.37 µM"
"CNC(=O)c1ccc(C(C)(C)C)cc1NC(=O)c1ccc([N+](=O)[O-])s1 [Compound 55, N-[5-tert-butyl-2-(methylcarbamoyl)phenyl]-5′-nitrothiophene-2′-carboxamide]",,,,,"solubility at 2 h (Kinetic solubility; FESSIF): 260 µM; solubility at 2 h (Kinetic solubility; PBS, aqueous buffer): < 2.5 µM; EC50 ([2]; Leishmania amazonensis, 48 h): 2.5 µM; EC50 ([3]; Leishmania donovani): 1.3 µM; EC50 (L. major promastigotes; Leishmania major, 48 h): 1.35 µM"
"O=C(Nc1ccccc1)c1ccc([N+](=O)[O-])s1 [Compound 33, 5′-nitro-N-phenylthiophene-2′-carboxamide]",3.6,4.06,15,0.93,
"CNC(=O)c1ccc(Br)cc1NC(=O)c1ccc([N+](=O)[O-])s1 [Compound 46, N-[5-bromo2-(methylcarbamoyl)phenyl]-5′-nitrothiophene-2′-carboxamide]",0.048,0.57,<2.5,0.12,Solubility (FESSIF)/μM (Kinetic solubility; [4]): 210 µM; CC50 (HepG2 cells): 7.2 µM
N-(3-cyanothiophen-2-yl)-5′-nitrothiophene-2′-carboxamide [Compound 5],2.1,1.1,,1.12,
"CNC(=O)c1ccc(OCCC2CCOCC2)cc1NC(=O)c1ccc([N+](=O)[O-])s1 [Compound 54, N-[2-(methylcarbamoyl)-5-[2″-(oxan-4″-yl)ethoxy]phenyl]-5′-nitrothiophene-2′-carboxamide]",,,,,"solubility at 2 h (Kinetic solubility; FESSIF): 47 µM; solubility at 2 h (Kinetic solubility; PBS, aqueous buffer): 3.7 µM; EC50 ([2]; Leishmania amazonensis, 48 h): 0.46 µM; EC50 ([3]; Leishmania donovani): 0.34 µM; inhibition of growth of S. aureus (S. aureus (FDA209P)): effective at inhibiting the bacteria at low concentrations; EC50 (L. major promastigotes; Leishmania major, 48 h): 0.33 µM"
N-(3-carbamoylthiophen-2-yl)-5′-nitrothiophene-2′-carboxamide [Compound 1],0.042,0.52,,0.004,pharmacokinetic profile [1]: poor pharmacokinetic profiles
